Test results published in ChEMBL document CHEMBL2021819, “CoA Adducts of 4-Oxo-4-Phenylbut-2-enoates: Inhibitors of MenB from the M. tuberculosis Menaquinone Biosynthesis Pathway” (ACS Med Chem Lett, 2011).
≈ marks a conversion by molar mass, not a printed value. Calls of active or inactive are those of the source. The rule behind the calls is not given here.

Legend:
[1] = Chemical stability of the compound at pH 7.4; format: physicochemical; conditions: buffer
[2] = system: Mycobacterium tuberculosis; assay: Antimycobacterial activity against Mycobacterium tuberculosis H37Rv after 5 to 7 days under […] condition by microplate dilution assay; format: functional
[3] = Selectivity index, ratio of cytotoxicity against african green monkey Vero cells to MIC for Mycobacterium tuberculosis H37Rv; format: functional
[4] = molecular target: T1, 1,4-dihydroxy-2-naphthoyl-CoA synthase (Mycobacterium tuberculosis, UniProt P9WNP5); assay: Inhibition of Mycobacterium tuberculosis MenB expressed in Escherichia coli BL21 (DE3) assessed as formation of DHNA-CoA from OSB-CoA by enzyme coupled-assay in presence of Escherichia coli MenE
T1 sequence (P9WNP5 whole entry): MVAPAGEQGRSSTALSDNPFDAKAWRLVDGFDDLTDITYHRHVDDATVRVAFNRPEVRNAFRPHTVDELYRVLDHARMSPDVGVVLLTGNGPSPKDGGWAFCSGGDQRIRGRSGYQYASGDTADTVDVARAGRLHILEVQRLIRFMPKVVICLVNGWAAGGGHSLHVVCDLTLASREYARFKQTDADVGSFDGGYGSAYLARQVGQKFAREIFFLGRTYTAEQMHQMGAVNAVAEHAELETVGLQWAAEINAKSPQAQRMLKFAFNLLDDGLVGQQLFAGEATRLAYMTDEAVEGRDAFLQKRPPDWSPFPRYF

[5] = molecular target: T1, 1,4-dihydroxy-2-naphthoyl-CoA synthase; assay: Non-competitive inhibition of Mycobacterium tuberculosis MenB expressed in Escherichia coli BL21 (DE3) by Lineweaver-Burk plot analysis
[6] = molecular target: T1, 1,4-dihydroxy-2-naphthoyl-CoA synthase; assay: Inhibition of Mycobacterium tuberculosis MenB expressed in Escherichia coli BL21 (DE3) by Lineweaver-Burk plot analysis
[7] = molecular target: T2, 1,4-dihydroxy-2-naphthoyl-CoA synthase (Mycobacterium tuberculosis) (UniProt P9WNP5); assay: Inhibition of Mycobacterium tuberculosis MenB expressed in Escherichia coli BL21 (DE3) assessed as formation of DHNA-CoA from OSB-CoA at 50 uM by enzyme coupled-assay in presence of Escherichia coli MenE
T2 sequence (whole entry): T1 sequence (P9WNP5 whole entry)

[8] = molecular target: T1, 1,4-dihydroxy-2-naphthoyl-CoA synthase; assay: Inhibition of Mycobacterium tuberculosis MenB expressed in Escherichia coli BL21 (DE3) assessed as formation of DHNA-CoA from OSB-CoA by enzyme coupled-assay in presence of Escherichia coli MenE preincubated for 1 hr
[9] = Half life of the compound at pH 7.4; format: physicochemical
[10] = system: Mycobacterium tuberculosis; assay: Antibacterial activity against non-replicating Mycobacterium tuberculosis H37Rv by low oxygen recovery assay; format: functional

[2H]C([2H])(C(=O)c1ccccc1Cl)C(N[C@@H](C)c1ccccc1)C(=O)O (stereo partly drawn)
Stability [1]: Stable

COC(=O)/C=C/C(=O)c1ccc(F)cc1
MIC [2]: 0.64 µg/mL (≈ 3.07 µM) | Selectivity Index [3]: >20

CC(C)(COP(=O)(O)OP(=O)(O)OC[C@H]1O[C@@H](n2cnc3c(N)ncnc32)[C@H](O)[C@@H]1OP(=O)(O)O)[C@@H](O)C(=O)NCCC(=O)NCCSCCC(=O)c1ccc(Cl)cc1Cl
IC50 [4]: > 400000 nM

CC(C)(COP(=O)(O)OP(=O)(O)OC[C@H]1O[C@@H](n2cnc3c(N)ncnc32)[C@H](O)[C@@H]1OP(=O)(O)O)[C@@H](O)C(=O)NCCC(=O)NCCSC(CC(=O)c1ccccc1Cl)C(=O)O (stereo partly drawn)
Ki [5]: 792 nM | Ki [6]: 97 nM | IC50 [4]: 103 nM

O=C(CC1N=C(c2ccccc2)OC1=O)c1ccc(Cl)cc1 (stereo not drawn)
inhibition [7]: inactive | Stability [1]: Stable

CC(C)(COP(=O)(O)OP(=O)(O)OC[C@H]1O[C@@H](n2cnc3c(N)ncnc32)[C@H](O)[C@@H]1OP(=O)(O)O)[C@@H](O)C(=O)NCCC(=O)NCCSC(CC(=O)c1ccccc1F)C(=O)O (stereo partly drawn)
IC50 [4]: 204 nM

C[C@H](NC(CC(O)c1ccc(Cl)cc1)C(=O)O)c1ccccc1 (stereo partly drawn)
inhibition [7]: inactive | Stability [1]: Stable

C[C@H](NC(CC(=O)c1ccc(Cl)cc1)C(=O)O)c1ccccc1 (stereo partly drawn)
IC50 [8]: 11700 nM | MIC [2]: 50 µg/mL (≈ 151 µM) | half-life [9]: 6.8 h | IC50 [4]: > 120000 nM

C[C@H](SC(CC(=O)c1ccc(Cl)cc1)C(=O)O)c1ccccc1 (stereo partly drawn)
inhibition [7]: inactive | Stability [1]: Stable

C[C@H](NC(CC(=O)c1ccccc1C(F)(F)F)C(=O)O)c1ccccc1 (stereo partly drawn)
IC50 [8]: 3200 nM | MIC [2]: 25 µg/mL (≈ 68.4 µM) | half-life [9]: 0.2 h | IC50 [4]: > 120000 nM

O=C(CC(NC(=O)c1ccccc1)C(=O)O)c1ccc(Cl)cc1 (stereo not drawn)
inhibition [7]: inactive | Stability [1]: Stable

COc1ccccc1C(=O)CC(N[C@@H](C)c1ccccc1)C(=O)O (stereo partly drawn)
IC50 [8]: > 120000 nM | MIC [2]: 12.5 µg/mL (≈ 38.2 µM) | half-life [9]: 11.6 h | IC50 [4]: > 120000 nM

CC(C(=O)c1ccc(Cl)cc1)C(N[C@@H](C)c1ccccc1)C(=O)O (stereo partly drawn)
inhibition [7]: Active | Stability [1]: Stable

CC(C)(COP(=O)(O)OP(=O)(O)OC[C@H]1O[C@@H](n2cnc3c(N)ncnc32)[C@H](O)[C@@H]1OP(=O)(O)O)[C@@H](O)C(=O)NCCC(=O)NCCSC(CC(=O)c1ccc(Cl)cc1)C(=O)O (stereo partly drawn)
Ki [5]: 1630 nM | Ki [6]: 350 nM | IC50 [4]: 468 nM

C[C@H](NC(CC(=O)c1ccccc1Cl)C(=O)O)c1ccccc1 (stereo partly drawn)
IC50 [8]: 8400 nM | MIC [2]: 50 µg/mL (≈ 151 µM) | half-life [9]: 0.4 h | IC50 [4]: > 120000 nM

C[C@H](NC(C(=O)O)C(C)(C)C(=O)c1ccccc1)c1ccccc1 (stereo partly drawn)
inhibition [7]: inactive | Stability [1]: Stable

CC(C)(COP(=O)(O)OP(=O)(O)OC[C@H]1O[C@@H](n2cnc3c(N)ncnc32)[C@H](O)[C@@H]1OP(=O)(O)O)[C@@H](O)C(=O)NCCC(=O)NCCSC(CC(=O)c1ccccc1I)C(=O)O (stereo partly drawn)
IC50 [4]: 421 nM

CC(C)(COP(=O)(O)OP(=O)(O)OC[C@H]1O[C@@H](n2cnc3c(N)ncnc32)[C@H](O)[C@@H]1OP(=O)(O)O)[C@@H](O)C(=O)NCCC(=O)NCCSC(CC(=O)c1cccc(Cl)c1)C(=O)O (stereo partly drawn)
IC50 [4]: 14100 nM

CC(C)(COP(=O)(O)OP(=O)(O)OC[C@H]1O[C@@H](n2cnc3c(N)ncnc32)[C@H](O)[C@@H]1OP(=O)(O)O)[C@@H](O)C(=O)NCCC(=O)NCCSC(CC(=O)c1ccccc1Br)C(=O)O (stereo partly drawn)
IC50 [4]: 135 nM

C[C@H](NC(CC(=O)c1ccccc1)C(=O)O)c1ccccc1 (stereo partly drawn)
IC50 [8]: 52700 nM | MIC [2]: 6.25 µg/mL (≈ 21 µM) | half-life [9]: 11.6 h | IC50 [4]: > 120000 nM

CC(C)(COP(=O)(O)OP(=O)(O)OC[C@H]1O[C@@H](n2cnc3c(N)ncnc32)[C@H](O)[C@@H]1OP(=O)(O)O)[C@@H](O)C(=O)NCCC(=O)NCCSC(CC(=O)c1ccccc1[N+](=O)[O-])C(=O)O (stereo partly drawn)
IC50 [4]: 154 nM

COc1ccc(C(=O)CC(SCCNC(=O)CCNC(=O)[C@H](O)C(C)(C)COP(=O)(O)OP(=O)(O)OC[C@H]2O[C@@H](n3cnc4c(N)ncnc43)[C@H](O)[C@@H]2OP(=O)(O)O)C(=O)O)cc1 (stereo partly drawn)
IC50 [4]: 33500 nM

CC(C)(COP(=O)(O)OP(=O)(O)OC[C@H]1O[C@@H](n2cnc3c(N)ncnc32)[C@H](O)[C@@H]1OP(=O)(O)O)[C@@H](O)C(=O)NCCC(=O)NCCSC(=O)CCC(=O)c1ccc(Cl)cc1Cl
IC50 [4]: 2200 nM

C[C@H](NC(CC(=O)c1ccc(F)cc1)C(=O)O)c1ccccc1 (stereo partly drawn)
IC50 [8]: 14400 nM | MIC [2]: 12.5 µg/mL (≈ 39.6 µM) | half-life [9]: 12.2 h | IC50 [4]: > 120000 nM

COC(=O)/C=C/C(=O)c1ccc(Cl)cc1
MIC [10]: 1.5 µg/mL (≈ 6.68 µM) | MIC [2]: 0.64 µg/mL (≈ 2.85 µM) | Selectivity Index [3]: >20

C[C@H](NC(C(=O)O)C(F)(F)C(=O)c1ccc(Cl)cc1)c1ccccc1 (stereo partly drawn)
inhibition [7]: inactive | Stability [1]: Stable

CC(C)(COP(=O)(O)OP(=O)(O)OC[C@H]1O[C@@H](n2cnc3c(N)ncnc32)[C@H](O)[C@@H]1OP(=O)(O)O)[C@@H](O)C(=O)NCCC(=O)NCCSC(CC(=O)c1ccc(Cl)cc1Cl)C(=O)O (stereo partly drawn)
Ki [5]: 286 nM | Ki [6]: 49 nM | IC50 [4]: 106 nM

O=C(O)/C=C/C(=O)c1ccc(Cl)cc1
MIC [2]: 25 µg/mL (≈ 119 µM)

COc1ccccc1C(=O)CC(SCCNC(=O)CCNC(=O)[C@H](O)C(C)(C)COP(=O)(O)OP(=O)(O)OC[C@H]1O[C@@H](n2cnc3c(N)ncnc32)[C@H](O)[C@@H]1OP(=O)(O)O)C(=O)O (stereo partly drawn)
IC50 [4]: 12100 nM
